Experimental findings from PMC4595804, “A strategy to discover decoy chemokine ligands with an anti-inflammatory activity” (Scientific Reports, 2015) are described below.

Structures are written as SMILES. Like-named read-outs stand apart in the source and are kept apart here. A value given as a limit tells only on which side of the number the result lay.

The solubility is the concentration that dissolves in the medium under given conditions.

One series concerns HUT78 T cells. The series is described as follows: WST-1 metabolic activity assay. In kind it is cell-based, human. As to conditions: 30 μM (highest concentration), 72 h. An excerpt: WST-1 metabolic activity assay
The colorimetric WST-1 cell metabolic assay (Ozyme) was used to assess the cytotoxic effect of chemokine neutraligands. This is a cell viability test based on the enzymatic cleavage by the mitochondrial succinate-tetrazolium reductase of a tetrazolium salt, WST-1 (4-[3-(4-Iodophenyl)-2-(4-nitrophenyl)-2H-5-tetrazolio]-1,3 benzene disulfonate), into a water- […]
soluble formazan dye which can be detected by absorbance at 420-480nm. HUT78 T cells (or HaCat cells) were seeded on 24-well plates (200,000 cells per well) and were incubated […]
concentration ≤1% on cells). The background control was reserved as one well containing the culture medium only. The plates were incubated for 72h at 37°C. Three days later, the medium containing the neutraligands was removed, and WST-1 reagent (1:10 final dilution) (Ozyme) was added to each well for a 2h incubation at 37°C as the manufacturer’s recommendation. The plates were shaken and absorbance was measured at 450nm (reference wavelength 690nm) against the background control, using a multiwell plate reader (EnVision, Perkin Elmer). Assays were performed as three independent replicates. […]
(Heidelberg, Germany) and was cultured in Dulbecco’s Modified Eagle Medium (DMEM) (Invitrogen) supplemented with 10% fetal bovine serum (FBS) (Gibco-BRL), 100U/ml penicillin (Invitrogen), 100µg/ml streptomycin (Invitrogen) and 2mM L-glutamine (Invitrogen) at 37°C and 5% CO 2. The cells received fresh medium every other day and were subcultured every 10 days. HaCat cells were seeded in a 24-well plate (ESSEN Bioscience) at a density of 200,000 cells per well, and were allowed to grow until confluence. A scratch wound along the cell monolayer was created using the Essen woundmakerTM. Cells were washed twice with PBS to remove detached cells, and were treated with serum-free culture medium in the absence or presence of 100ng/ml chemokine (CCL22 or CCL17) preincubated with DMSO or […]
The molecules were also tested alone […]
without the chemokine. […] One […]
µg/ml of mitomycin C (Sigma-Aldrich) was added throughout the experiment in order to block cell proliferation. Once treated, the cells were immediately placed into the IncuCyteTM live-cell imaging, and the cell migration onto the wounded area was examined for 72h. Phase-contrast images acquired for each sample were captured every 2h (objective lens x10), and […]

Another series concerns the target T1, COX1 (Homo sapiens, UniProt P23219).
T1 construct: endogenous in cells; host or cells: primary human monocytes
As to the kind of experiment: COX1 mediated PGE2 release in primary monocytes. In kind it is cell-based. As to conditions: monocytes + arachidonic acid. On the procedure: the wound closure was determined as the difference between wound width at times 0 and 72h. This experiment was repeated three times.
Human primary monocytes were isolated from buffy coats of healthy human blood donors and seeded in 24-well plates (500,000 cells/ml in 1ml) for COX-1/2 activity or 96-well plates for cell viability experiments.
Cells were seeded in 96 well plates (5,000 cells/well in 200µl) for cytotoxicity testing (Alamar […]
doses). After 24h, cytotoxicity was evaluated in the wells using the Alamar Blue method. NaF (250µg/ml) was used as a control in this experiment.
Cyclooxygenase (COX) activity
COX1 mediated prostaglandin E2 (PGE2) release. Monocytes were treated with arachidonic […]
were then collected for the determination of PGE2 by enzyme immunoassay (EIA) […]
COX2 mediated prostaglandin E2 (PGE2) release. Monocytes were incubated with LPS (10U/ml) for 24h to induce COX2 protein synthesis. After renewal of medium (serum free), […]
before AA treatment. The activity of COX2 was determined by measuring PGE2 (Cayman) in the supernatants by EIA. Aspirin (10µM) and diclofenac (10µM) were used as control […]
NaF (250µg/ml) was used as a control (relative light unit, r.l.u). (c) Monocytes were treated […]
GPN136 (grey bars). The activity of COX1 was determined by measuring prostaglandin E2 (PGE2). […]
of COX2 was determined by measuring PGE2. […]

Series [1] can be described thus: Solubility measurements (RP-HPLC). Conditions: kinetic from dmso stock, dissolved at 10 µM, room temperature. In kind it is physicochemical. The method, then: Standard stock solutions of compounds (10mM) were prepared in DMSO, and the molecules were dissolved at a concentration of 10µM in each of the three buffers. The samples were shaken for 1h at room temperature, and centrifuged at 15,000×g . The compounds concentration in the supernatant solutions was determined using RP-HPLC (Gilson) technique. The measurements were done with a UV detector set at 230nm. The measurements were carried out at room temperature using a C18 column ([…], 50×4.6mm, Phenomenex). The aqueous mobile phase contained 0.05% trifluoroacetic acid (solvent A, Sigma-Aldrich). The organic phase was HPLC grade acetonitrile (Sigma-Aldrich CHROMASOLV) (solvent B). The mobile phase flow rate was 2ml/min, and the following program was applied for the elution: 0–0.1min, 5% B; 0.1–2.6min, 5–95% B; 2.6–3.1min, 95% B; 3.1–3.3min, 95–5% B; and 3.3–6min, 5% B. To establish external calibration curves, increasing concentrations of each compound were prepared from standard stock solutions.
The chromatograms were recorded by injecting 20µl of each standard solution, and the calibration curves were plotted using peak areas. […]

[2] abbreviates: HEPES buffer, aqueous buffer, read-out: solubility in HEPES buffer.
Setting [3] is: complete cell culture medium, plasma or biological fluid, read-out: solubility in the cell culture medium.

T1 sequence (P23219 24-599): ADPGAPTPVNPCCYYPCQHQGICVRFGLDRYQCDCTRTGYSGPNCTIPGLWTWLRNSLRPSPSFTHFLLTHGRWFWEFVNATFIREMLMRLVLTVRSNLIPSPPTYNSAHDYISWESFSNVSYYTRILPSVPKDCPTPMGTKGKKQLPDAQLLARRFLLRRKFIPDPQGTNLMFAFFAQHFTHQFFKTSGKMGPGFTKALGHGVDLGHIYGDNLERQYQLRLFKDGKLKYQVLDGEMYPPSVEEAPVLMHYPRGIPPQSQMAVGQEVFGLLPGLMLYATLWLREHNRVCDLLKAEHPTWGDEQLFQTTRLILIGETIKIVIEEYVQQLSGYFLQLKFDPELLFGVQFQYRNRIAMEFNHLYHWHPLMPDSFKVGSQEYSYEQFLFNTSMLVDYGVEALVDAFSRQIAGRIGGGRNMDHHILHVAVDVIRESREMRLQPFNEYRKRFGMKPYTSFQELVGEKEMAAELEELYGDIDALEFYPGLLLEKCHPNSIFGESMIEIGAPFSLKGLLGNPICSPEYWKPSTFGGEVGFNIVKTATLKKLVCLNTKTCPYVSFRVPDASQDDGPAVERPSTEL

With `CC(C)=CCn1cnc2c1c(=O)n(C)c(=O)n2C` [GPN279, 1,3-dimethyl-7-(3-methylbut-2-enyl)-1H-purine-2,6(3H, 7H)-dione], in the series on HUT78 T cells, the “cytotoxic activity on HUT78 T cells (metabolic activity vs control non-treated cells)” value is listed as “no cytotoxic activity”. The “effect on COX1 activity (PGE2)” value on COX1 (100 µM) is listed as “no effect”. The solubility at 1 h in series [1] (setting [2]) and in series [1] (setting [3]) was over 10 µM each time.
Regarding `O=C(OCC(O)CO)c1ccccc1O` (centres unmarked) [GPN136, 2,3-dihydroxypropyl 2-hydroxybenzoate], in the series on HUT78 T cells, the “cytotoxic activity on HUT78 T cells (metabolic activity vs control non-treated cells)” value is “no cytotoxic activity”. In addition, at COX1, the “doses at which COX1 activity is inhibited” value was over 100 µM. The solubility at 1 h in series [1] (setting [2]) and in series [1] (setting [3]) was over 10 µM each time.
